Here are results for 14 compounds from patent US9108903B2, “Amides as modulators of sodium channels” (VERTEX PHARMACEUTICALS INCORPORATED, priority 2013, dated 2015).

human Nav1.8, sequence (Q9Y5Y9 whole entry): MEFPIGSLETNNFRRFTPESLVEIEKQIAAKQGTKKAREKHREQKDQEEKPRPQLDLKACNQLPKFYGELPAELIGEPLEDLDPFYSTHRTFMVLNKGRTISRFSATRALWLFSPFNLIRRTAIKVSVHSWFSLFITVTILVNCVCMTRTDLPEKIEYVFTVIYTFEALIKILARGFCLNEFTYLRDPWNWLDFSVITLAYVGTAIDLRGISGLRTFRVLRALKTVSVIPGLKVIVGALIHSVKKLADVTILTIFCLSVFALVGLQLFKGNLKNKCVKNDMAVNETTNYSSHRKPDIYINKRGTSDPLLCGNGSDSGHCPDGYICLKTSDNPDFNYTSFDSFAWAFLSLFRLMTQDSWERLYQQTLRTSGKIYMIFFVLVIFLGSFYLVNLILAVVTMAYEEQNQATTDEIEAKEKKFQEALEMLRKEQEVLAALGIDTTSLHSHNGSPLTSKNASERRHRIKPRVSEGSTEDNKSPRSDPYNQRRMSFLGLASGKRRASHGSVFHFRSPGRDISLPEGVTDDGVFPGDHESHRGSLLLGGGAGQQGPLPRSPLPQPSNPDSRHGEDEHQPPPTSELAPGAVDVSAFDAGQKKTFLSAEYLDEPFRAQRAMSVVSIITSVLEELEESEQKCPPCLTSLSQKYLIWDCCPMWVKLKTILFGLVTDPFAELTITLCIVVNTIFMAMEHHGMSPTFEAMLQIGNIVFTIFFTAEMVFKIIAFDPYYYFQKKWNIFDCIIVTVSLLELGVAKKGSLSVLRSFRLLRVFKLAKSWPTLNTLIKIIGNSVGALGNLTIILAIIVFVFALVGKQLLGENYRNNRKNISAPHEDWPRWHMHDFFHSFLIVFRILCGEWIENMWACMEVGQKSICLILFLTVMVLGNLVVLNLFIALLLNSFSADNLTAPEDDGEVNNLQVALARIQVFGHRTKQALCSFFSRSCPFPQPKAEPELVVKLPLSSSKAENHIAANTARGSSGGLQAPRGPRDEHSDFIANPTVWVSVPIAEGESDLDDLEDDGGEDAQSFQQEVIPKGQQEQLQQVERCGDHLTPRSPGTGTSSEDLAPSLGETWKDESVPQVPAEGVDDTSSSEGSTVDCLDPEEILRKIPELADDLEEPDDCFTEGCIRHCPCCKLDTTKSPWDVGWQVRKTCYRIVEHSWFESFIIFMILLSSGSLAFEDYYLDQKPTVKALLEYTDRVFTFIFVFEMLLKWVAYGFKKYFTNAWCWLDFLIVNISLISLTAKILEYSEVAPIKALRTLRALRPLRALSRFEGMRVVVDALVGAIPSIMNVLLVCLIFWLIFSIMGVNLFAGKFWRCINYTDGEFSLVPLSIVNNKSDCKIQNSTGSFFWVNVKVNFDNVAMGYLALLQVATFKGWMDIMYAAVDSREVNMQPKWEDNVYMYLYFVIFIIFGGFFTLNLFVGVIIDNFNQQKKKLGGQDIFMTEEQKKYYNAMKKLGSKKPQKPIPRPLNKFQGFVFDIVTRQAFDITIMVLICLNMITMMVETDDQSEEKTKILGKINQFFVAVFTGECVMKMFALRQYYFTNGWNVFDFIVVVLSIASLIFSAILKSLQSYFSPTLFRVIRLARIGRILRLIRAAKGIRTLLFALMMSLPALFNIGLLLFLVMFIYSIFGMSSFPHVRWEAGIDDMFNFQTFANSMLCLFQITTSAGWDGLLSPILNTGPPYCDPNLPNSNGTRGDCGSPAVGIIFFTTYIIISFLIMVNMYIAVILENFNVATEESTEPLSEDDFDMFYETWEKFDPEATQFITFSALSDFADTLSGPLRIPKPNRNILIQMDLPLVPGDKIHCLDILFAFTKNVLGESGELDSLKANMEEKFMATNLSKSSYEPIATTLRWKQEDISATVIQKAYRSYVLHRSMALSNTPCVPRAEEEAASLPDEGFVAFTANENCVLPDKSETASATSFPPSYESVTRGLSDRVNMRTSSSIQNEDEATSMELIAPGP

In the test the target is human Nav1.8 (Homo sapiens (Human), UniProt Q9Y5Y9). Description: E-VIPR optical membrane potential assay with electrical stimulation. The test is classed as cell-based. The settings on record: HEK cells expressing human Nav1.8. The source says:
Assays for Detecting and Measuring NaV Inhibition Properties of Compounds E-VIPR Optical Membrane Potential Assay Method with Electrical Stimulation
Sodium channels are voltage-dependent proteins that can be activated by inducing membrane voltage changes by applying electric fields. The electrical stimulation instrument and methods of use are described in Ion Channel Assay Methods PCT/US01/21652, herein incorporated by reference and are referred to as E-VIPR. The instrument comprises a microtiter plate handler, an optical system for exciting the coumarin dye while simultaneously recording the coumarin and oxonol emissions, a waveform generator, a current- or voltage-controlled amplifier, and a device for inserting electrodes in well. Under integrated computer control, this instrument passes user-programmed electrical stimulus protocols to cells within the wells of the microtiter plate.
24 hours before the assay on E-VIPR, HEK cells expressing human Nav1.8 were seeded in 384-well poly-lysine coated plates at 15,000-20,000 cells per well. HEK cells were grown in media (exact composition is specific to each cell type and NaV subtype) supplemented with 10% FBS (Fetal Bovine Serum, qualified; GibcoBRL #16140-071) and 1% Pen-Strep (Penicillin-Streptomycin; GibcoBRL #15140-122). Cells were grown in vented cap flasks, in 90% humidity and 5% CO2.
100 mg/mL Pluronic F-127 (Sigma #P2443), in dry DMSO
Compound Plates: 384-well round bottom plate, e.g. Corning 384-well Polypropylene Round Bottom #3656
Cell Plates: 384-well tissue culture treated plate, e.g. Greiner #781091-1B
Bath1 buffer: Glucose 10 mM (1.8 g/L), Magnesium Chloride (Anhydrous), 1 mM (0.095 g/L), Calcium Chloride, 2 mM (0.222 g/L), HEPES 10 mM (2.38 g/L), Potassium Chloride, 4.5 mM (0.335 g/L), Sodium Chloride 160 mM (9.35 g/L).
Hexyl Dye Solution: Bath1 Buffer+0.5% β-cyclodextrin (make this prior to use, Sigma #C4767), 8 μM CC2-DMPE+2.5 μM DiSBAC6(3). To make the solution added volume of 10% Pluronic F127 stock equal to volumes of CC2-DMPE+DiSBAC6(3). The order of preparation was first mix Pluronic and CC2-DMPE, then added DiSBAC6(3) while vortexing, then added Bath1+β-Cyclodextrin.
1) Pre-spotted compounds (in neat DMSO) into compound plates. Vehicle control (neat DMSO), the positive control (20 mM DMSO stock tetracaine, 125 μM final in assay) and test compounds were added to each well at 160× desired final concentration in neat DMSO. Final compound plate volume was 80 μL (80-fold intermediate dilution from 1 μL DMSO spot; 160-fold final dilution after transfer to cell plate). Final DMSO concentration for all wells in assay was 0.625%.
2) Prepared Hexyl Dye Solution.
3) Prepared cell plates. On the day of the assay, medium was aspirated and cells were washed three times with 100 μL of Bath1 Solution, maintaining 25 μL residual volume in each well.
4) Dispensed 25 μL per well of Hexyl Dye Solution into cell plates. Incubated for 20-35 minutes at room temp or ambient conditions.
5) Dispensed 80 μL per well of Bath1 into compound plates. Acid Yellow-17 (1 mM) was added and Potassium Chloride was altered from 4.5 to 20 mM depending on the NaV subtype and assay sensitivity.
6) Washed cell plates three times with 100 μL per well of Bath1, leaving 25 μL of residual volume. Then transfered 25 uL per well from Compound Plates to Cell Plates. Incubated for 20-35 minutes at room temp/ambient condition.
7) Read Plate on E-VIPR. Used the current-controlled amplifier to deliver stimulation wave pulses for 10 seconds and a scan rate of 200 Hz. A pre-stimulus recording was performed for 0.5 seconds to obtain the un-stimulated intensities baseline. The stimulatory waveform was followed by 0.5 seconds of post-stimulation recording to examine the relaxation to the resting state.
Data was analyzed and reported as normalized ratios of emission intensities measured in the 460 nm and 580 nm channels. The response as a function of time was reported as the ratios obtained using the following formula: […]
What is called IC50 is the concentration at which inhibition is half-maximal. High values mean lower potency, low ones higher potency. For the compound `COc1ccc(Oc2cc(Cl)c(Cl)cc2C(=O)Nc2ccc(C(=O)O)nc2)c(F)c1` [Compound 34, 5-(4,5-dichloro-2-(2-fluoro-4-methoxyphenoxy)benzamido)picolinic acid], the IC50 stood at 52 nM.
The compound `COc1ccc(Oc2cc(Cl)c(Cl)cc2C(=O)Nc2ccc(C(=O)O)nc2)c(Cl)c1` [Compound 43, 5-(4,5-dichloro-2-(2-chloro-4-methoxyphenoxy)benzamido)picolinic acid] gave an IC50 of 65 nM.
The value for `COc1cc(F)ccc1Oc1cc(C(F)(F)C(F)(F)F)ccc1C(=O)Nc1ccc(C(=O)O)cc1` [Compound 27, 4-(2-(4-fluoro-2-methoxyphenoxy)-4-(perfluoroethyl)benzamido)benzoic acid] was 20 nM; that for `O=C(O)c1ccc(NC(=O)c2cc(Cl)c(Cl)cc2Oc2ccc(OC(F)(F)F)cc2)cn1` [Compound 44, 5-(4,5-dichloro-2-(4-(trifluoromethoxy)phenoxy)benzamido)picolinic acid] was 20 nM; that for `COc1c(F)cccc1Oc1ccc(C(F)(F)F)cc1C(=O)Nc1ccc(C(=O)O)nc1` [Compound 69, 5-(2-(3-fluoro-2-methoxyphenoxy)-5-(trifluoromethyl)benzamido)picolinic acid] was 135 nM.
The value for `O=C(O)c1ccc(NC(=O)c2c(Oc3ccc(F)cc3)cc(C(F)(F)F)cc2C(F)(F)F)cc1` [Compound 11, 4-(2-(4-fluorophenoxy)-4,6-bis(trifluoromethyl)benzamido)benzoic acid] was 305 nM; that for `COc1cc(F)ccc1Oc1cc(Cl)c(Cl)cc1C(=O)Nc1ccc(C(=O)O)cc1` [Compound 12, 4-(4,5-dichloro-2-(4-fluoro-2-methoxyphenoxy)benzamido)benzoic acid] was 11 nM; that for `COc1cc(F)ccc1Oc1cc(C(F)(F)F)cc(C(F)(F)F)c1C(=O)Nc1ccc(C(=O)O)cc1` [Compound 10, 4-(2-(4-fluoro-2-methoxyphenoxy)-4,6-bis(trifluoromethyl)benzamido)benzoic acid] was 37 nM.
The result for `Cc1cc(Cl)ccc1Oc1ccc(C(F)(F)F)cc1C(=O)Nc1ccc(C(=O)O)nc1` [Compound 61, 5-(2-(4-chloro-2-methylphenoxy)-5-(trifluoromethyl)benzamido)picolinic acid] reads 145 nM; that for `Cc1cc(F)ccc1Oc1cc(C(F)(F)F)cc(C(F)(F)F)c1C(=O)Nc1ccc(C(=O)O)cc1` [Compound 9, 4-(2-(4-fluoro-2-methylphenoxy)-4,6-bis(trifluoromethyl)benzamido)benzoic acid], 130 nM.
For the compound `COc1cc(Cl)ccc1Oc1cc(Cl)c(Cl)cc1C(=O)Nc1ccc(C(=O)O)nc1` [Compound 36, 5-(4,5-dichloro-2-(4-chloro-2-methoxyphenoxy)benzamido)picolinic acid], it took 39 nM to reach half-maximal inhibition (IC50).
The result for `O=C(O)c1ccc(NC(=O)c2cc(C(F)(F)F)ccc2Oc2ccc(F)cc2Cl)cn1` [Compound 58, 5-(2-(2-chloro-4-fluorophenoxy)-5-(trifluoromethyl)benzamido)picolinic acid] reads 80 nM; that for `O=C(O)c1ccc(NC(=O)c2cc(C(F)(F)F)ccc2Oc2ccc(F)cc2)cn1` [Compound 71, 5-(2-(4-fluorophenoxy)-5-(trifluoromethyl)benzamido)picolinic acid], 285 nM; that for `O=C(O)c1ccc(NC(=O)c2cc(Cl)c(Cl)cc2Oc2ccccc2)cc1` [Compound 15, 4-(4,5-dichloro-2-phenoxybenzamido)benzoic acid], 290 nM.
